Test results from patent US8815840B2, “Carbazole and carboline kinase inhibitors” (Bristol-Myers Squibb Company, priority 2008, dated 2014).

Biological target: JAK2 (Homo sapiens (Human), UniProt O60674)
Assay: JAK2 Tyrosine Kinase Assay
Type: biochemical
Conditions: ATP 30 μM; JAK2 1 nM; 60 min at room temperature
Experimental: JAK2 Tyrosine Kinase Assay
The assays were performed in V-bottom 384-well plates. […] The reaction was initiated by the combination of JAK2 with substrates and test compounds. The reaction was incubated at room temperature for 60 min. and terminated by adding 45 μl of 35 mM EDTA to each sample. The reaction mixture was analyzed on the Caliper LABCHIP® 3000 by electrophoretic separation of the fluorescent substrate and phosphorylated product. […] Compounds were dissolved at 10 mM in dimethylsulfoxide (DMSO) and evaluated at eleven concentrations, each in duplicate. IC50 values were derived by non-linear regression analysis

Chain of JAK2 (O60674 whole entry): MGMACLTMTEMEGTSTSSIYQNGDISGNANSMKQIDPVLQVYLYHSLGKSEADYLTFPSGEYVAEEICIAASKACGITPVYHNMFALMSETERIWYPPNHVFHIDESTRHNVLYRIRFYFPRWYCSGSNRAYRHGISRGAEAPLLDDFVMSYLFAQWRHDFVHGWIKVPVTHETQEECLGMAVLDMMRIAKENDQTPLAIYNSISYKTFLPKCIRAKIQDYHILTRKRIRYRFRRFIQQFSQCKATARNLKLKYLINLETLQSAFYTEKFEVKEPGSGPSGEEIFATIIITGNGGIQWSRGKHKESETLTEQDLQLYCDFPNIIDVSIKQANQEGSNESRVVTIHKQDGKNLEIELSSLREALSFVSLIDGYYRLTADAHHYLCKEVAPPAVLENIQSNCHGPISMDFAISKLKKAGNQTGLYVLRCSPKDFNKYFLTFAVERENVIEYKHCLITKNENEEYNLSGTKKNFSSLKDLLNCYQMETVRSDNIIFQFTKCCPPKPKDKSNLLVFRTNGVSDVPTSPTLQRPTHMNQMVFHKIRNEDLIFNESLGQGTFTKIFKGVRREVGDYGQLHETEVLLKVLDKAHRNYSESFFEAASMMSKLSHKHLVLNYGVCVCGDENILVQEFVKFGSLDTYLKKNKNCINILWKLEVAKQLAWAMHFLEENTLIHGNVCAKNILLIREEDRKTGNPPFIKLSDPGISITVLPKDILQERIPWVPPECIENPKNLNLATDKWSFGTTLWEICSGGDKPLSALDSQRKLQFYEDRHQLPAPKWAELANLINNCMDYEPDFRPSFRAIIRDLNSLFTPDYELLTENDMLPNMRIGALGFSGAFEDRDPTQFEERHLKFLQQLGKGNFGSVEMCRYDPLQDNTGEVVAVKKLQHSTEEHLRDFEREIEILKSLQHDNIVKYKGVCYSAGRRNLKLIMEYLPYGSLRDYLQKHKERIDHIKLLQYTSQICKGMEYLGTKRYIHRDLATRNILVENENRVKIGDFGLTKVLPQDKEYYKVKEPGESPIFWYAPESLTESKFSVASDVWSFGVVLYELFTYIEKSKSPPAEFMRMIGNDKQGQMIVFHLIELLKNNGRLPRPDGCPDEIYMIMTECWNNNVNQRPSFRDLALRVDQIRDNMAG

IC50 | SMILES
1 nM | COc1ccc(-c2cc(C(N)=O)c3[nH]c4cc(N5CCN(C)CC5)ccc4c3n2)cc1F [Example 310, 2-(3-fluoro-4-methoxyphenyl)-7-(4-methylpiperazin-1-yl)-5H-pyrido[3,2-b]indole-4-carboxamide]
6 nM | NC(=O)c1cc(-c2cccc(C(F)(F)F)c2)nc2c1[nH]c1cc(N3CCNCC3)ccc12 [Example 316, 7-(Piperazin-1-yl)-2-(3-(trifluoromethyl)phenyl)-5H-pyrido[3,2-b]indole-4-carboxamide]
1 nM | NC(=O)c1cc(-c2ccc(CN3CCOCC3)cc2)nc2c1[nH]c1cc(N3CCS(=O)(=O)CC3)ccc12 [Example 323, 7-(1,1-Dioxido-4-thiomorpholinyl)-2-(4-(4-morpholinylmethyl)phenyl)-5H-pyrido[3,2-b]indole-4-carboxamide]
1 nM | NC(=O)c1cc(-c2ccc(CN3CCOCC3)s2)nc2c1[nH]c1cc(N3CCOCC3=O)ccc12 [Example 324, 2-(5-(Morpholinomethyl)thiophen-2-yl)-7-(3-oxomorpholino)-5H-pyrido[3,2-b]indole-4-carboxamide]
1 nM | COc1ccc(-c2cc(C(N)=O)c3[nH]c4cc(N5CCOCC5)ccc4c3n2)cc1F [Example 344, 2-(3-fluoro-4-methoxyphenyl)-7-morpholino-5H-pyrido[3,2-b] indole-4-carboxamide]
1 nM | NC(=O)c1cc(-c2ccc(CN3CCOCC3)s2)nc2c1[nH]c1cc(N3CCOCC3)ccc12 [Example 345, 7-morpholino-2-(5-(morpholinomethyl)thiophen-2-yl)-5H-pyrido[3,2-b] indole-4-carboxamide]
1 nM | NC(=O)c1cc(-c2ccc(OCCN3CCOCC3)c(Cl)c2)nc2c1[nH]c1cc(N3CCOCC3)ccc12 [Example 353, 2-(3-Chloro-4-(2-morpholinoethoxy)phenyl)-7-morpholino-5H-pyrido[3 ,2-b]indole-4-carboxamide]
6 nM | COCCOc1ccc(-c2cc(C(N)=O)c3[nH]c4cc(N5CCOCC5)ccc4c3n2)cc1Cl [Example 357, 2-(3-chloro-4-(2-methoxyethoxy)phenyl)-7-morpholino-5H-pyrido[3,2-b]indole-4-carboxamide]
7 nM | NC(=O)c1cc(-c2ccc(OC3CCNCC3)c(Cl)c2)nc2c1[nH]c1cc(N3CCOCC3)ccc12 [Example 360, 2-(3-chloro-4-(piperidin-4-yloxy)phenyl)-7-morpholino-5H-pyrido[3,2-b]indole-4-carboxamide]
6 nM | COCCN1CCN(Cc2ccc(-c3cc(C(N)=O)c4[nH]c5cc(N6CCOCC6)ccc5c4n3)s2)CC1 [Example 373, 2-(5-((4-(2-methoxyethyl)piperazin-1-yl)methyl)thiophen-2-yl)-7-morpholino-5H-pyrido[3,2-b]indole-4-carboxamide]
6 nM | NC(=O)c1cc(-c2cc(CN3CCOCC3)co2)nc2c1[nH]c1cc(N3CCOCC3)ccc12 [Example 374, 7-morpholino-2-(4-(mor-pholinomethyl)furan-2-yl)-5H-pyrido[3,2-b]indole-4-carboxamide]
111 nM | COc1ccc(-c2cc(C(N)=O)c3[nH]c4cc(C(=O)O)ccc4c3c2)cc1F [Example 395, 8-Carbamoyl-6-(3-fluoro-4-methoxyphenyl)-9H-carbazole-2-carboxylate]
142 nM | NC(=O)c1cc(N2CCOCC2)nc2c1[nH]c1cc(C(=O)N3CCOCC3)ccc12 [Example 403, 7-(morpholine-4-carbonyl)-2-morpholino-5H-pyrido[3,2-b]indole-4-carboxamide]
636 nM | NC(=O)c1cc(N2CCC(N)CC2)nc2c1[nH]c1cc(C(=O)N3CCOCC3)ccc12 [Example 405, 2-(4-aminopiperidin-1-yl)-7-(morpholine-4-carbonyl)-5H-pyrido[3,2-b]indole-4-carboxamide]
1 nM | Cc1ccc(-c2cc(C(N)=O)c3[nH]c4ccc(C(=O)O)cc4c3c2)c(F)c1 [Example 424, 8-Carbamoyl-6-(2-fluoro-4-methylphenyl)-9H-carbazole-3-carboxylic acid]
1 nM | NC(=O)c1cc(-c2ncccn2)cc2c1[nH]c1cc(C(=O)N3CCOCC3)ccc12 [Example 430, 7-(Morpholine-4-carbonyl)-3-(pyrimidin-2-yl)-9H-carbazole-1-carboxamide]
1 nM | Cn1ccc2cc(-c3cc(C(N)=O)c4[nH]c5cc(C(=O)N6CCOCC6)ccc5c4n3)ccc21 [Example 448, 2-(1-methyl-1H-indol-5-yl)-7-(morpholine-4-carbonyl)-5H-pyrido[3,2-b]indole-4-carboxamide]
7 nM | Cn1ncc2ccc(-c3cc(C(N)=O)c4[nH]c5cc(C(=O)N6CCOCC6)ccc5c4n3)cc21 [Example 454, 2-(1-methyl-1H-indazol-6-yl)-7-(morpholine-4-carbonyl)-5H-pyrido[3,2-b]indole-4-carboxamide]

IC50 | SMILES
1 nM | NC(=O)c1cc(-c2ccc3scnc3c2)nc2c1[nH]c1cc(C(=O)N3CCOCC3)ccc12 [Example 456, 2-(benzo[d]thiazol-5-yl)-7-(morpholine-4-carbonyl)-5H-pyrido[3,2-b]indole-4-carboxamide]
146 nM | Cc1noc(C)c1-c1cc(C(N)=O)c2[nH]c3cc(C(=O)N4CCOCC4)ccc3c2n1 [Example 461, 2-(3,5-dimethylisoxazol-4-yl)-7-(morpholine-4-carbonyl)-5H-pyrido[3,2-b]indole-4-carboxamide]
112 nM | NC(=O)c1cc(-c2cnoc2)nc2c1[nH]c1cc(C(=O)N3CCOCC3)ccc12 [Example 462, 2-(isoxazol-4-yl)-7-(morpholine-4-carbonyl)-5H-pyrido[3,2-b]indole-4-carboxamide]
314 nM | Cn1nc(C(F)(F)F)cc1-c1cc(C(N)=O)c2[nH]c3cc(C(=O)N4CCOCC4)ccc3c2n1 [Example 464, 2-(1-methyl-3-(trifluoromethyl)-1H-pyrazol-5-yl)-7-(morpholine-4-carbonyl)-5H-pyrido[3,2-b]indole-4-carboxamide]
6 nM | CN1CCN(c2ccc(-c3cc(C(N)=O)c4[nH]c5cc(C(=O)N6CCOCC6)ccc5c4n3)cc2)CC1 [Example 468, 2-(4-(4-methylpiperazin-1-yl)phenyl)-7-(morpholine-4-carbonyl)-5H-pyrido[3,2-b]indole-4-carboxamide]
11 nM | NC(=O)c1nc(-c2ccccc2)cc2c1[nH]c1cc(C(=O)N3CCOCC3)ccc12 [Example 469, 7-(Morpholine-4-carbonyl)-3-phenyl-9H-pyrido[3,4-b]indole-1-carboxamide]
123 nM | Cc1cccc(-c2cc(C(N)=O)c3[nH]c4cc(N5CCN(Cc6ccccc6)CC5)ccc4c3c2)c1 [Example 479, 7-(4-Benzylpiperazin-1-yl)-3-m-tolyl-9H-carbazole-1-carboxamide]
133 nM | NC(=O)c1cc(-c2ccc(CN3CCOCC3)c(Cl)c2)cc2c1[nH]c1cc(-c3cccnc3)ccc12 [Example 481, 3-(3-Chloro-4-(morpholinomethyl)phenyl)-7-(pyridin-3-yl)-9H-carbazole-1-carboxamide]
917 nM | NC(=O)c1cc(-c2ccc(CN3CCOCC3)c(Cl)c2)cc2c1[nH]c1cc(-c3ccc(N4CCOCC4)nc3)ccc12 [Example 482, 3-(3-Chloro-4-(morpholinomethyl)phenyl)-7-(6-morpholinopyridin-3-yl)-9H-carbazole-1-carboxamide]
818 nM | Cc1cc(-c2cc(C(N)=O)c3[nH]c4cc(C5CCN(C(=O)OC(C)(C)C)CC5)ccc4c3c2)ccc1CN1CCOCC1 [Example 486, tert-Butyl 4-(8-carbamoyl-6-(3-methyl-4-(morpholinomethyl)phenyl)-9H-carbazol-2-yl)piperidine-1-carboxylate]
1 nM | NC(=O)c1cc(-c2ccc(C3CC3)nc2)nc2c1[nH]c1cc(N3CCOCC3)ccc12 [Example 499, 2-(6-cyclopropylpyridin-3-yl)-7-morpholino-5H-pyrido[3,2-b]indole-4-carboxamide]
6 nM | NC(=O)c1cc(-c2ccc(CO)nc2)nc2c1[nH]c1cc(N3CCOCC3)ccc12 [Example 500, 2-(6-(hydroxymethyl)pyridin-3-yl)-7-morpholino-5H-pyrido[3,2-b]indole-4-carboxamide]
7 nM | Cc1cc(-c2cc(C(N)=O)c3[nH]c4cc(N5CCOCC5)ccc4c3n2)ccc1Cl [Example 501, 2-(4-chloro-3-methylphenyl)-7-morpholino-5H-pyrido[3,2-b]indole-4-carboxamide]
1 nM | CN(C)c1ccc(-c2cc(C(N)=O)c3[nH]c4cc(N5CCOCC5)ccc4c3n2)cn1 [Example 503, 2-(6-(dimethylamino)pyridin-3-yl)-7-morpholino-5H-pyrido[3,2-b]indole-4-carboxamide]
1 nM | NC(=O)c1cc(-c2ccc(N3CCOCC3)nc2)nc2c1[nH]c1cc(N3CCOCC3)ccc12 [Example 504, 7-morpholino-2-(6-morpholinopyridin-3-yl)-5H-pyrido[3,2-b]indole-4-carboxamide]
885 nM | NC(=O)c1cc(-c2ccc(F)c(Cl)c2)cc2c1[nH]c1cc(C(=O)N3CCOCC3)ccc12 [Example 545, 3-(3-Chloro-4-fluorophenyl)-7-(morpholine-4-carbonyl)-9H-carbazole-1-carboxamide]
286 nM | CN(C)C(=O)c1ccc(-c2cc(C(N)=O)c3[nH]c4cc(C(=O)N5CCOCC5)ccc4c3c2)cc1 [Example 558, 3-(4-(dimethylcarbamoyl)phenyl)-7-(4-morpholinylcarbonyl)-9H-carbazole-1-carboxamide]
1010 nM | N#Cc1cc(-c2cc(C(N)=O)c3[nH]c4cc(C(=O)N5CCOCC5)ccc4c3c2)ccc1F [Example 563, 3-(3-cyano-4-fluorophenyl)-7-(4-morpholinylcarbonyl)-9H-carbazole-1-carboxamide]
